These are literature values, as cited in EP3808777A1, “STABLE LIQUID ANTIBODY FORMULATIONS” (Glenmark Specialty S.A., priority 2019, dated 2021).

As to `N=C(N)NCCC[C@H](N)C(=O)O` [Arginine], the pKa values is listed as 1.82.

With `N[C@@H](Cc1c[nH]cn1)C(=O)O` [L-hisitidine], the effective buffering range (pH range) was 5.5-7.4.

Turning to `NCCCC[C@H](N)C(=O)O` [Lysine], the pKa values is recorded as 9.06.
